Read-outs that look alike come from different tables or passages of the source.
Legend:
[1] = molecular target: Pim-1 (Homo sapiens (Human), UniProt P11309); experiment: ADP-Glo Kinase Assay, Pim-1; type: biochemical; conditions: 1 μM compound; for inhibition at 1 µM: read-out: Pim-1 % INH (1 μM)
Method in brief: (§1)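 Buffer was MOPS 5 mM (pH 7.5) with MgCl2, EDTA and DTT; ATP set at apparent Km per kinase. Compounds were diluted in assay buffer to 1000 nM. Kinase-generated ADP was converted to luciferase signal and normalised to percent inhibition.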

[2] = molecular target: FLT3wt (Homo sapiens (Human), UniProt P36888); experiment: ADP-Glo Kinase Assay, Flt3 wt; type: biochemical; conditions: 1 μM compound; for inhibition at 1 µM: read-out: Flt3wt % INH (1 μM)
Method in brief: as §1

[3] = molecular target: CDK2/E (Homo sapiens (Human), UniProt P24941); experiment: ADP-Glo Kinase Assay, CDK2/E; type: biochemical; conditions: 1 μM compound; for inhibition at 1 µM: read-out: CDK2/E % INH (1 μM)
Method in brief: as §1

[4] = system: MV4-11 cells; experiment: Growth inhibition, MTS assay, MV4-11; type: cell-based, Human; conditions: MTS cell viability, read-out: MV4-11 ED50
[5] = system: HEL92 cells; experiment: Growth inhibition, MTS assay, HEL92; type: cell-based, Human; conditions: MTS cell viability, read-out: HEL92 ED50
[6] = system: MOLM16 cells; experiment: Growth inhibition, MTS assay, MOLM16; type: cell-based, Human; conditions: MTS cell viability, read-out: MOLM 16 ED50
Excerpt: The following cell lines, were obtained and used in tests as outlined below: • Human myelomonocytic, biphenotypic leukemia MV4-11 cells (harboring a Flt3-ITD mutation); • Human Acute Myeloid Leukemia MOLM16 cells; • Human Acute Myeloid Leukemia MOLM13 cells (harboring a Flt3-ITD mutation); • Human Myeloid Leukemia KG-1 cells; • Human erythroleukemia HEL92 cells; • Human mantle cell lymphoma Jeko-1 cells; • Human hepatocellular carcinoma HepG2 cells; and • Human colon adenocarcinoma SW-480 cells.
The assays were carried out according to the following protocol, which is described as an example for the MV4-11 cells:
Ten thousand MV4-11 cells were inoculated into each well of a 96-well microplate (manufactured by Corning Corp.) using Iscove's MDM medium (culture medium) containing 10% fetal calf serum (FCS). The same day, a dimethyl sulfoxide (DMSO) solution of each test compound prepared in a concentration of 10 mmol/L was further diluted with DMSO to the desired concentrations (0.1, 0.5, 1, 2.5, 5 and 10 micromol/L), and the diluted solution was added to each well. The individual wells were further cultured in 5% carbon dioxide at 37° C. for 72 hours. […] Briefly, 10 μl MTS (3-(4,5-Dimethyl-2-thiazolyl)-5-(carboxymethoxyphenyl)-2-(4-sulfophenyl)-2H-tetrazolium was added to each well, and culturing was performed in 5% carbon dioxide at 37° C. for 2 hours. After this incubation and using a microplate spectrophotometer (Synergy 2 multi-mode microplate reader (BioTek)), the absorbance of each well was measured at 490 nm. The value for cells not incubated with a test compound was designated as 100%. By comparing these values with the absorbance difference obtained at the well in which each test compound was added, the cell viability (% viability) after treatment with the test compound was calculated.

[7] = molecular target: Pim-2 (Homo sapiens (Human), UniProt Q9P1W9); experiment: ADP-Glo Kinase Assay, Pim-2; type: biochemical; conditions: 1 μM compound
Method in brief: as §1

[8] = molecular target: Pim-3 (Homo sapiens (Human), UniProt Q86V86); experiment: ADP-Glo Kinase Assay, Pim-3; type: biochemical; conditions: 1 μM compound
Method in brief: as §1

[9] = molecular target: DYRK1 (Homo sapiens (Human), UniProt Q13627); experiment: ADP-Glo Kinase Assay, DYRK1; type: biochemical; conditions: 1 μM compound
Method in brief: as §1

[10] = system: HepG2 cells; experiment: Growth inhibition, MTS assay, HepG2; type: cell-based, Human; conditions: MTS cell viability, read-out: HepG2 ED50
[11] = molecular target: CYP3A4 (Homo sapiens (Human), UniProt P08684); experiment: Cytochrome P450 inhibition, fluorescence, CYP3A4; type: in vitro ADME; conditions: recombinant CYP3A4, fluorescence detection; read-out: CYP inhibition (CYP 3A4 screening, IC50 class)
Procedure: The assays for cytochrome P450 inhibition facilitate the identification of drug candidates with lower potential for drug-drug interactions (weak enzymes inhibitors). In vitro experiments were conducted to determine whether a drug inhibits a specific CYP enzyme. The experiments comprised the incubation of the drug with probe substrates for the CYP enzymes, wherein the following recombinant cytochrome P450 isoforms were employed: CYP1A2, CYP2C8, CYP2C9, CYP2C19, CYP2D6 and CYP3A4, together with various probe substrates enabling fluorescence detection. The protocol uses a single substrate concentration near the apparent Km and multiple compound concentrations.
The assay was performed in 96-well microtiter plates. The row designations were A through H and the column designations were 1 through 12. […] Each compound (see Table 6 for tested compounds) was added to the wells in column 1 and serially diluted to the wells in column 8. Wells 9 and 10 were control wells which contained no test compound (therefore no inhibition-full signal is detected.) The wells in columns 11 and 12 were blanks, where STOP solution was added prior to the addition of the enzyme/substrate mix to the NADPH regenerating system (the only signal present in these wells is background noise.) The assay was conducted in a final volume of 0.2 ml per well.
The stock solutions of the tested compounds were prepared in DMSO at 10 mM concentration. […] After mixing the compounds with solution containing NADPH-cofactors, the mixed plate was preincubated in a 37° C. incubator for at least 10 minutes; next, the fluorescence of compounds using recommended excitation/emission filters was measured in order to eliminate false results originating from autofluorescence of the compounds. In the following step, the enzyme/substrate mix was added to columns 1 through 10 and the plates were incubated at 37° C. for specific times depending on the CYP tested (incubation times ranged from 30 to 45 minutes). After adding STOP SOLUTION to all wells and respective enzyme/substrate mix to the wells in columns 11 and 12, the plate was scanned with a fluorescent plate scanner. The excitation/emission filters used for the specific assays are described in the GenTest Screening Kit instruction manual.

Pim-1, sequence (P11309 whole entry): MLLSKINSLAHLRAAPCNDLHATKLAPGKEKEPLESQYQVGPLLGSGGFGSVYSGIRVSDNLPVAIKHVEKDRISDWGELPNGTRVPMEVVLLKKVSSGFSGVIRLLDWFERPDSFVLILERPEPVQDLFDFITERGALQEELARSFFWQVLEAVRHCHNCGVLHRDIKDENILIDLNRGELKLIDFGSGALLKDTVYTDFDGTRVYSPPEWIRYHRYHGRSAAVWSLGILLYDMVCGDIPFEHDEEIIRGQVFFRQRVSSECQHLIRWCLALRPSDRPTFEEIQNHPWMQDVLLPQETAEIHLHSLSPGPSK
FLT3wt, sequence (P36888 27-993): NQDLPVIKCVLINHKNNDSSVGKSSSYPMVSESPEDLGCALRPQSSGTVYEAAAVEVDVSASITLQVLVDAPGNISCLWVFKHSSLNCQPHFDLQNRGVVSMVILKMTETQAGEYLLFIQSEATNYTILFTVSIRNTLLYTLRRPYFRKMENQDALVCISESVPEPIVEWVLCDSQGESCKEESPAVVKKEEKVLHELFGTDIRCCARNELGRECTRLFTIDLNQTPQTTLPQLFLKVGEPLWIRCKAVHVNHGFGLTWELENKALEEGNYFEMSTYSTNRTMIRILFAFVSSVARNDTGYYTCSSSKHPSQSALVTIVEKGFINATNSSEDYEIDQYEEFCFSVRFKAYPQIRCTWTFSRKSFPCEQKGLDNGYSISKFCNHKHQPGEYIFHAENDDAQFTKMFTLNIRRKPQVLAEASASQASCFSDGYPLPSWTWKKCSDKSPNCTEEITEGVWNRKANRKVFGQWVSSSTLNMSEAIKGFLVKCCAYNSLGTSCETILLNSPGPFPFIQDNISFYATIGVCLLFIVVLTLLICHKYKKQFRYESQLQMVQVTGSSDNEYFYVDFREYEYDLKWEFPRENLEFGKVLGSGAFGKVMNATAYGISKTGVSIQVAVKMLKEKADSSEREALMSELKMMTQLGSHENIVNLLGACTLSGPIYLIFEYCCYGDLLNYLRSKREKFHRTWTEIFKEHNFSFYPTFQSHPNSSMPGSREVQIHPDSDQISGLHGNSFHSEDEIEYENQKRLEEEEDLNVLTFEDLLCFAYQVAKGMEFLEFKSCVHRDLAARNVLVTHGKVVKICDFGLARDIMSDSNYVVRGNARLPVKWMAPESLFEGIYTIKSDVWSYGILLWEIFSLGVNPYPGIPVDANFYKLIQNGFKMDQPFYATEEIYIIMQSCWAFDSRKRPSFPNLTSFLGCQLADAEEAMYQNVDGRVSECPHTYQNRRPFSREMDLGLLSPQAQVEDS
CYP3A4, sequence (P08684 whole entry, canonical isoform): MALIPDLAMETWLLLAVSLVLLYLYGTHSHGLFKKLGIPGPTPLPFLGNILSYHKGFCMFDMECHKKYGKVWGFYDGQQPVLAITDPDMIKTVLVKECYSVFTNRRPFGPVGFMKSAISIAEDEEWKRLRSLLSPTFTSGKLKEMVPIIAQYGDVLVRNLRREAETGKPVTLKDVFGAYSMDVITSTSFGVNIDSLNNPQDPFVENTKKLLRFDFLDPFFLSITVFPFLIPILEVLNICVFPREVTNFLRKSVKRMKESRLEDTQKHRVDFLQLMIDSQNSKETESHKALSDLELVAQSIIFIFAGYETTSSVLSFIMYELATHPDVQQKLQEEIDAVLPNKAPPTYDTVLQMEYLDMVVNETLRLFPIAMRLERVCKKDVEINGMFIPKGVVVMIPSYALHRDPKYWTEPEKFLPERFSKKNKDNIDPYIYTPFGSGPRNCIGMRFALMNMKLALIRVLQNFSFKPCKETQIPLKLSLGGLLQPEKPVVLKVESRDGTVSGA
Pim-2, sequence (Q9P1W9 whole entry): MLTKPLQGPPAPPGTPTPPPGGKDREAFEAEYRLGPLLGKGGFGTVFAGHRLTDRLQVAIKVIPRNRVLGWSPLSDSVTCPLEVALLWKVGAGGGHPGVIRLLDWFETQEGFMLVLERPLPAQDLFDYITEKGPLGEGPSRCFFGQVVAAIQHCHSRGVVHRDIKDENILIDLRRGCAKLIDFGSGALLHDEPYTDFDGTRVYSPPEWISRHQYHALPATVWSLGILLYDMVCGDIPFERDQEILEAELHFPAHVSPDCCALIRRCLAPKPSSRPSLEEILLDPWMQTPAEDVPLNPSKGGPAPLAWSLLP

| SMILES | inhibition at 1 µM [1] | inhibition at 1 µM [2] | inhibition at 1 µM [3] | IC50 ([4]; 72 hours) | IC50 ([5]; 72 hours) | IC50 ([6]; Homo sapiens, MOLM16, 72 h) | Pim-1 % INH (1 μM) [1] | Flt3wt % INH (1 μM) [2] | CDK2/E % INH (1 μM) [3] | IC50 ([6]; 72 hours) | Pim-2 % INH (1 μM) [7] | Pim-3 % INH (1 μM) [8] | DYRK1A % INH (1 μM) [9] | IC50 ([10]; Homo sapiens, HepG2, 72 h) | IC50 [11] | inhibition at 1 µM ([8]; read-out: Pim-3 % INH (1 μM)) | IC50 ([4]; Homo sapiens, MV4-11, 72 h) | IC50 ([10]; 72 hours) | inhibition at 1 µM ([9]; read-out: DYRK1A % INH (1 μM)) | IC50 ([5]; Homo sapiens, 72 h) |
| --- | --- | --- | --- | --- | --- | --- | --- | --- | --- | --- | --- | --- | --- | --- | --- | --- | --- | --- | --- | --- |
| CC(C)n1c(C2CCCC(N)C2)nc2c([N+](=O)[O-])c(Br)c(Br)cc21 (single isomer, unassigned) [Example 26B, 3-[5,6-dibromo-4-nitro-1-(propan-2-yl)-1H-1,3-benzodiazol-2-yl]cyclohexan-1-amine] | > 95% | 43% | 36% | 400 nM | 6100 nM | 100 nM | – | – | – | – | – | – | – | – | – | – | – | – | – | – |
| CC(C)n1c(C2CCCC(N)C2)nc2c([N+](=O)[O-])c(Br)c(Br)cc21 (single isomer, unassigned) [Example 26C, 3-[5,6-dibromo-4-nitro-1-(propan-2-yl)-1H-1,3-benzodiazol-2-yl]cyclohexan-1-amine] | – | – | – | 100 nM | 3000 nM | – | >95% | 55% | 55% | 200 nM | – | – | – | – | – | – | – | – | – | – |
| CC(C)n1c(NC2CCNC2)nc2c(C#N)c(Br)c(Br)cc21 (centres unmarked) [Example 1BH] | 83% | – | < 5% | 4600 nM | – | – | – | <5% | – | – | 13% | 60% | 22% | 5600 nM | > 10000 nM | – | – | – | – | – |
| CC(C)n1c(N2CCOC(CN)C2)nc2c(C#N)c(Br)c(Br)cc21 (centres unmarked) [Example 1BM] | > 95% | < 5% | < 5% | – | – | – | – | – | – | – | – | – | – | 4500 nM | 1100 to 3300 nM | 62% | 4900 nM | – | – | – |
| N[C@@H]1CCN(c2nc3c([N+](=O)[O-])c(Br)c(Br)cc3n2C2CCC2)C1 [Example 1DC] | – | – | – | 200 nM | 2000 nM | – | >95% | 52% | – | 160 nM | – | – | >95% | – | – | – | – | 1000 nM | – | – |
| CC(C)n1c(N2CCC(N)CC2)nc2c(C#N)c(Br)c(Br)cc21 [Example 1DT] | > 95% | < 5% | 46% | – | – | 300 nM | – | – | – | – | – | – | – | 1000 nM | – | – | 1500 nM | – | 34% | – |
| CCn1c(NC2CCC(N)CC2)nc2c([N+](=O)[O-])c(Br)c(Br)cc21 (centres unmarked) [Example 1DU] | – | – | – | 1000 nM | – | 900 nM | >95% | 12% | 53% | – | – | – | 39% | – | – | – | – | 1300 nM | – | 5500 nM |

Source: US10174013B2, “Benzimidazole derivatives as kinase inhibitors” (SELVITA S.A., priority 2012, dated 2019)
